Experimental data as given in US20160031907A1, “Substituted Benzene Compounds” (EPIZYME, INC., priority 2013, published 2016).

Tested on: WSU-DLCL2 cell line
Assay: Cell proliferation analysis (Cell Titer Glo, 6 days)
Assay type: cell-based
Conditions: Homo sapiens, WSUDLCL2, 144 h; WSU-DLCL2 cells, 6 days incubation, cell viability by ATP (Cell Titer Glo)
From the text: Cell Proliferation Analysis
WSU-DLCL2 suspension cells were purchased from DSMZ (German Collection of Microorganisms and Cell Cultures, Braunschweig, Germany). RPMI/Glutamax Medium, Penicillin-Streptomycin, Heat Inactivated Fetal Bovine Serum were purchased from Life Technologies, Grand Island, N.Y., USA. V-bottom polypropylene 384-well plates were purchased from Greiner Bio-One, Monroe, N.C., USA. Cell culture 384-well white opaque plates were purchased from Perkin Elmer, Waltham, Mass., USA. Cell-Titer Glo® was purchased from Promega Corporation, Madison, Wis., USA. SpectraMax M5 plate reader was purchased from Molecular Devices LLC, Sunnyvale, Calif., USA.
WSU-DLCL2 suspension cells were maintained in growth medium (RPMI 1640 supplemented with 10% v/v heat inactivated fetal bovine serum and cultured at 37° C. under 5% CO2. Under assay conditions, cells were incubated in Assay Medium (RPMI 1640 supplemented with 20% v/v heat inactivated fetal bovine serum and 100 units/mL penicillin-streptomycin) at 37° C. under 5% CO2.
For the assessment of the effect of compounds on the proliferation of the WSU-DLCL2 cell line, exponentially growing cells were plated in 384-well white opaque plates at a density of 1250 cell/ml in a final volume of 50 μl of assay medium. A compound source plate was prepared by performing triplicate nine-point 3-fold serial dilutions in DMSO, beginning at 10 mM (final top concentration of compound in the assay was 20 μM and the DMSO was 0.2%). A 100 nL aliquot from the compound stock plate was added to its respective well in the cell plate. The 100% inhibition control consisted of cells treated with 200 nM final concentration of staurosporine and the 0% inhibition control consisted of DMSO treated cells. After addition of compounds, assay plates were incubated for 6 days at 37° C., 5% CO2, relative humidity >90% for 6 days. Cell viability was measured by quantization of ATP present in the cell cultures, adding 35 μl of Cell Titer Glo® reagent to the cell plates. Luminescence was read in the SpectraMax M5. The concentration inhibiting cell viability by 50% was determined using a 4-parametric fit of the normalized dose response curves.

Compound	IC50 [µM]
CCN(c1cc(Cl)cc(C(=O)NCc2c(C)ccn3ccnc23)c1C)[C@H]1CC[C@H](N(C)C)CC1 [Cpd 2]	> 25
CCN(c1cc(Cl)cc(C(=O)NCc2cncn2C)c1C)C1CCOCC1 [Cpd 22]	> 50
CCN(c1cc(Cl)cc(C(=O)NCc2cc(C)on2)c1C)C1CCOCC1 [Cpd 29]	> 50
CCN(c1cc(Cl)cc(C(=O)NCc2cn3ccsc3n2)c1C)C1CCOCC1 [Cpd 26]	> 50
CCN(c1cc(Cl)cc(C(=O)NCc2c(C)cc(C)n3ccnc23)c1C)[C@H]1CC[C@H](N(C)C)CC1 [Cpd 1]	> 25
CCN(c1cc(Cl)cc(C(=O)NCc2cn(C)cn2)c1C)C1CCOCC1 [Cpd 25]	> 50
CCN(c1cc(Cl)cc(C(=O)NCc2c[nH]cn2)c1C)C1CCOCC1 [Cpd 30]	44.1
CCN(c1cc(Cl)cc(C(=O)NCc2nccn2C)c1C)C1CCOCC1 [Cpd 23]	> 50
CCN(c1cc(Cl)cc(C(=O)NCCc2ncc[nH]2)c1C)[C@H]1CC[C@H](N(C)C)CC1 [Cpd 10]	> 50
CCN(c1cc(Cl)cc(C(=O)NCc2ccn(C)n2)c1C)C1CCOCC1 [Cpd 28]	> 50
CCN(c1cc(Cl)cc(C(=O)NCc2cccn3ccnc23)c1C)[C@H]1CC[C@H](N(C)C)CC1 [Cpd 3]	> 25
CCN(c1cc(Cl)cc(C(=O)NCc2cc(C)nn2C)c1C)C1CCOCC1 [Cpd 31]	> 50
CCN(c1cc(Cl)cc(C(=O)NCc2cnn(C)c2C)c1C)C1CCOCC1 [Cpd 27]	> 50
CCN(c1cc(Cl)cc(C(=O)NCc2nccs2)c1C)C1CCOCC1 [Cpd 24]	> 50
